Results taken from ChEMBL document CHEMBL1201862, “PubChem BioAssay data set” (2004).
Several values for one entry are separate records, joined by “and”; a condition that tells them apart may be missing. Equal values may be shown once.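 Where inhibition never reached the appropriate level, the endpoint shown equals the highest concentration tested. Otherwise, values were interpolated linearly from a five-concentration, 48-hour dose response in 96-well plates. GI50 is the concentration that inhibits growth by half.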 Activity calls are given as the source filed them. No stated cut-off is given here; in the data, active = GI50 up to about 1.1 µM and inactive = higher.

Columns and labels:
Assay in all cases: NCI-60 cell line screen, 48 h
[1] = system: Malme-3M
[2] = system: HCC 2998
[3] = system: KM-20L2
[4] = system: KM12
[5] = system: COLO 205
[6] = system: SK-MEL-28
[7] = system: DMS-273
[8] = system: SF-268
[9] = system: MOLT-4
[10] = system: HT-29
[11] = system: RXF 393
[12] = system: ACHN
[13] = system: SNB-19
[14] = system: SK-MEL-5
[15] = system: HL-60
[16] = system: M14
[17] = system: XF498
[18] = system: A498
[19] = system: SF-295
[20] = system: EKVX
[21] = system: LOX IMVI
[22] = system: 786-0
[23] = system: NCI-H460
[24] = system: HCT-15
[25] = system: IGROV-1
[26] = system: RPMI-8226
[27] = system: A549
[28] = system: SK-OV-3
[29] = system: OVCAR-5
[30] = system: OVCAR-3
[31] = system: SF-539
[32] = system: UACC-62
[33] = system: DLD-1
[34] = system: OVCAR-8
[35] = system: OVCAR-4
[36] = system: NCI-H23
[37] = system: HOP-92
[38] = system: K562
[39] = system: UACC-257
[40] = system: M19-MEL
[41] = system: CCRF-CEM
[42] = system: SNB-75
[43] = system: LXFL 529
[44] = system: TK-10
[45] = system: U-251
[46] = system: SN12C
[47] = system: NCI-H522
[48] = system: HOP-18
[49] = system: CAKI-1
[50] = system: SK-MEL-2
[51] = system: SW-620
[52] = system: UO-31
[53] = system: HOP-62
[54] = system: HCT-116
[55] = system: NCI-H226
[56] = system: SR
[57] = system: BT-549
[58] = system: Hs-578T
[59] = system: MDA-N
[60] = system: PC-3
[61] = system: MDA-MB-231
[62] = system: SNB-78
[63] = system: DU-145
[64] = system: T47D
[65] = system: MDA-MB-435

Measured: GI50

O=C(O)CCNS(=O)(=O)c1ccc(NC(=O)c2ccccc2)cc1
> 100 µM: [24]
inactive: [1] > 100 µM | [2] > 100 µM | [3] > 100 µM | [4] > 100 µM | [5] > 100 µM | [6] > 100 µM | [7] > 100 µM | [8] > 100 µM | [9] > 100 µM | [10] > 100 µM | [11] > 100 µM | [12] > 100 µM | [13] > 100 µM | [14] > 100 µM | [15] > 100 µM | [16] > 100 µM | [17] > 100 µM | [18] > 100 µM | [19] > 100 µM | [20] > 100 µM | [21] > 100 µM | [22] > 100 µM | [23] > 100 µM | [25] > 100 µM | [26] > 100 µM | [27] > 100 µM | [28] > 100 µM | [29] > 100 µM | [30] > 100 µM | [31] > 100 µM | [32] > 100 µM | [33] > 100 µM | [34] > 100 µM | [35] > 100 µM | [36] > 100 µM | [37] > 100 µM | [38] > 100 µM | [39] > 100 µM | [40] > 100 µM | [41] > 100 µM | [42] > 100 µM | [43] > 100 µM | [44] > 100 µM | [45] > 100 µM | [46] > 100 µM | [47] > 100 µM | [48] > 100 µM | [49] > 100 µM | [50] > 100 µM | [51] > 100 µM | [52] > 100 µM

CC(N)Cc1ccc(Cl)cc1 (stereo not drawn)
51.6 µM: [24]
inactive: [53] > 100 µM | [1] > 100 µM | [2] > 100 µM | [3] 47.2 µM | [4] > 100 µM | [5] > 100 µM | [6] > 100 µM | [7] > 100 µM | [8] > 100 µM | [9] 68.9 µM | [10] 50.8 µM | [11] > 100 µM | [12] > 100 µM | [13] > 100 µM | [14] 72.1 µM | [15] 37.6 µM | [16] > 100 µM | [17] > 100 µM | [18] > 100 µM | [19] 47.9 µM | [20] > 100 µM | [21] > 100 µM | [22] > 100 µM | [23] 50 µM | [54] 41 µM | [55] > 100 µM | [25] 42.4 µM | [26] > 100 µM | [27] > 100 µM | [28] > 100 µM | [29] 58.5 µM | [30] > 100 µM | [31] > 100 µM | [32] > 100 µM | [33] > 100 µM | [34] > 100 µM | [35] > 100 µM | [36] 39.5 µM | [56] > 100 µM | [37] 50.8 µM | [38] 50.6 µM | [39] > 100 µM | [41] 61.2 µM | [42] > 100 µM | [43] > 100 µM | [44] > 100 µM | [45] > 100 µM | [46] > 100 µM | [47] > 100 µM | [48] > 100 µM | [49] > 100 µM | [50] > 100 µM | [51] > 100 µM | [52] 59.4 µM

Cc1cc(O)c2c(=O)c3c(O)cc(O)c4c5c(O)cc(O)c6c(=O)c7c(O)cc(C)c8c1c2c(c34)c(c78)c65 [HYPERICIN]
inactive: [53] 28.3 µM | [1] 61 µM | [3] 21.7 µM | [4] 54.5 µM | [6] 53.1 µM | [7] 56.4 µM | [8] 54 µM | [11] 26.4 µM | [12] > 100 µM | [13] > 100 µM | [14] 59.8 µM | [57] > 100 µM | [16] > 100 µM | [17] 71.1 µM | [20] > 100 µM and 62.5 µM | [22] > 100 µM | [58] > 100 µM | [59] > 100 µM | [27] 52.6 µM | [60] > 100 µM | [30] > 100 µM and 67 µM | [61] 10.1 µM | [33] 21.3 µM | [34] 74.3 µM | [62] 42.5 µM | [63] > 100 µM | [56] 99.8 µM | [64] > 100 µM | [38] 61.8 µM and 33.3 µM | [40] 44.2 µM | [44] > 100 µM | [46] 60.8 µM | [48] 63.1 µM | [49] > 100 µM | [65] > 100 µM | [51] 51.9 µM
